Test systems include CAKI-1; HCT-15; HT-29; NCI-H226; NCI-H460; OVCAR-8; RPMI-8226; SF-268; SK-MEL-28; SK-OV-3; SNB-75; UACC-257; UACC-62; HL-60; OVCAR-3; SK-MEL-5.
Common to all, as to test: NCI anticancer screen, dose series, 48 h

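Dose response: 5 concentrations. Exposure: 48 h. Format: 96-well plates. Endpoint: linear interpolation; highest concentration if not reached. GI50 is the concentration that inhibits growth by half.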 Activity calls are given as the source filed them. Cut-off read from the data, not from the text of the source: active = GI50 up to about 1.1 µM and inactive = higher.

From ChEMBL document CHEMBL1201862, “PubChem BioAssay data set” (2004) come the findings set out here.

Consider `CC1(C)NC(=O)N(CCCCCCN2C(=O)NC(C)(C)C2=O)C1=O`, for which the GI50 in the assay on CAKI-1 is > 100 µM (inactive); with HCT-15, greater than 100 µM; with HT-29 it was > 100 µM (inactive); in the assay with NCI-H226, > 100 µM (inactive); with NCI-H460, > 100 µM (inactive); in the assay with OVCAR-8, > 100 µM (inactive). Also, the GI50 in the assay on RPMI-8226, in the assay with SF-268, in the assay with SK-MEL-28, in the assay with SK-OV-3, in the assay with SNB-75 and in the assay with UACC-257 was > 100 µM (inactive) throughout. For the same compound, in the assay on UACC-62, the GI50 was > 100 µM (inactive).

As for `CCOC(=O)C1Cc2ccc3c4c(ccc(c24)C1)CC(C(=O)OCC)C3`, the GI50 is greater than 100 µM with HCT-15; > 100 µM (inactive) with HL-60; > 100 µM (inactive) in the assay on HT-29; > 100 µM (inactive) in the assay with NCI-H226; > 100 µM (inactive) with OVCAR-3; > 100 µM (inactive) in the assay with OVCAR-8. The GI50 in the assay on RPMI-8226, with SF-268, in the assay on SK-MEL-28, in the assay with SK-MEL-5, in the assay with SK-OV-3 and with SNB-75 was > 100 µM (inactive) in each case. In addition, the GI50 with UACC-257 and with UACC-62 was > 100 µM (inactive) throughout.

`Clc1ccc2c(c1)C1C(CO2)C(c2ccccc2)=NN1c1ccccc1` (configuration not stated): the GI50 in the assay on HL-60 is 17.3 µM (inactive); in the assay with HT-29, 76.9 µM (inactive); with NCI-H460 it was 36.2 µM (inactive); with OVCAR-3, 23 µM (inactive); in the assay with OVCAR-8, 28.6 µM (inactive); in the assay with RPMI-8226, 12.4 µM (inactive). The GI50 in the assay on SF-268 was 42.5 µM (inactive); with SK-MEL-28, 54.1 µM (inactive); with SK-OV-3, > 100 µM (inactive); in the assay with SNB-75, 20.1 µM (inactive); in the assay on UACC-257, 49.7 µM (inactive).

Turning to `CN1/C(=N\c2ccccc2)S/C1=N/c1ccccc1`, the GI50 is 90.8 µM in the assay with HCT-15; 27.2 µM (inactive) in the assay on HL-60; 55.5 µM (inactive) with HT-29; > 100 µM (inactive) with NCI-H226; > 100 µM (inactive) in the assay with NCI-H460; 34.1 µM (inactive) in the assay on OVCAR-3. For the same compound, the GI50 in the assay on OVCAR-8 is > 100 µM (inactive); with RPMI-8226 it was 39.5 µM (inactive); with SF-268, > 100 µM (inactive); in the assay on SK-MEL-28, > 100 µM (inactive); with SK-MEL-5, 28.9 µM (inactive); with SK-OV-3, > 100 µM (inactive). For the same compound, the GI50 in the assay with SNB-75 was 6.62 µM (inactive); in the assay with UACC-257 it was > 100 µM (inactive); in the assay with UACC-62, > 100 µM (inactive).

Consider `O=C(CO)CC(=O)C(=O)Nc1ccccc1`, for which the GI50 with HCT-15 was greater than 100 µM; in the assay with HL-60 it was > 100 µM (inactive); in the assay with HT-29, > 100 µM (inactive); in the assay on NCI-H226, > 100 µM (inactive); in the assay on NCI-H460, > 100 µM (inactive); with OVCAR-3 it was > 100 µM (inactive). The GI50 in the assay on OVCAR-8, in the assay with SF-268, with SK-MEL-28, in the assay with SK-MEL-5, in the assay with SK-OV-3 and in the assay with UACC-257 was > 100 µM (inactive) throughout. For the same compound, the GI50 in the assay with UACC-62 is > 100 µM (inactive).

In the case of `CCCCCCCCCCCCCCCC(=O)OCC1OC(n2cc(F)c(=O)[nH]c2=O)C(NC(=O)OCc2ccccc2)C(O)C1O` (configuration not stated), the GI50 in the assay on CAKI-1 is 16.3 µM (inactive); with HCT-15 it was 18.5 µM; in the assay with HL-60 it was 20.2 µM (inactive); in the assay on HT-29, 17.8 µM (inactive); in the assay on NCI-H460 it was 19.2 µM (inactive); with OVCAR-3, 16.1 µM (inactive). Further, the GI50 in the assay on OVCAR-8 was 17.7 µM (inactive); in the assay with RPMI-8226 it was 15.7 µM (inactive); in the assay on SF-268, 23.4 µM (inactive); in the assay with SK-MEL-5, 18.2 µM (inactive); in the assay on SK-OV-3, 24.1 µM (inactive); in the assay with SNB-75, 19.8 µM (inactive). The GI50 in the assay on UACC-62 was 17.1 µM (inactive).

Take `C=C1C2C[C@@H]3OC4CC5O[C@]6(CC5OC4C(C)C3OC(=O)CC3CC[C@@H]4OC5C7OC8C[C@](CCC9CC(=C)[C@H](CCC(C[C@H]1C)O2)O9)(OC7C4O3)O[C@@H]85)C[C@@H]1O[C@@]2(CC(C)[C@@H]3OC(CC(=O)CCO)C(O)C[C@@H]3O2)CC(C)[C@@H]1O6` (some centres not stated): the GI50 with CAKI-1 is < 0.001 µM (active); in the assay on HCT-15, less than 0.001 µM; in the assay with NCI-H226, < 0.001 µM (active); with NCI-H460, < 0.001 µM (active); in the assay with OVCAR-3, < 0.001 µM (active); in the assay on OVCAR-8, < 0.001 µM (active). The GI50 in the assay with SF-268, in the assay with SK-MEL-5, in the assay on SK-OV-3, in the assay with UACC-257 and in the assay with UACC-62 was < 0.001 µM (active) throughout.

`COc1ccc(/C=C/CO)cc1OC`: the GI50 with HCT-15 is greater than 100 µM; in the assay with HT-29 it was > 100 µM (inactive); in the assay on NCI-H226, 49.9 µM (inactive); in the assay with OVCAR-3, > 100 µM (inactive); in the assay with OVCAR-8, > 100 µM (inactive); in the assay on RPMI-8226, > 100 µM (inactive). Further, the GI50 with SF-268, in the assay on SK-MEL-28, in the assay with SK-MEL-5, with SK-OV-3, in the assay with SNB-75 and in the assay on UACC-257 was > 100 µM (inactive) in each case. In addition, the GI50 with UACC-62 is > 100 µM (inactive).

As for `C=CCCC(O)c1cc(C)c(O)c(C)c1` (configuration not stated), the GI50 in the assay with HCT-15 is greater than 100 µM; in the assay with HL-60 it was > 100 µM (inactive); in the assay with NCI-H226, > 100 µM (inactive); with NCI-H460, > 100 µM (inactive); with OVCAR-3, > 100 µM (inactive); in the assay on OVCAR-8, > 100 µM (inactive). In addition, the GI50 in the assay with RPMI-8226 was > 100 µM (inactive); in the assay with SF-268 it was > 100 µM (inactive); in the assay on SK-MEL-28, > 100 µM (inactive); in the assay on SK-MEL-5, > 100 µM (inactive); with SK-OV-3, > 100 µM (inactive); with SNB-75, 60.1 µM (inactive). Further, the GI50 with UACC-257 and in the assay with UACC-62 was > 100 µM (inactive) each time.

On to `NCCOCCOCC(=O)O`, for which the GI50 in the assay on CAKI-1 is > 100 µM (inactive); in the assay with HCT-15, greater than 100 µM; with HT-29, > 100 µM (inactive); in the assay on NCI-H226, > 100 µM (inactive); with OVCAR-3, > 100 µM (inactive); in the assay on OVCAR-8, > 100 µM (inactive). Also, the GI50 with RPMI-8226, in the assay with SF-268, in the assay with SK-MEL-28, in the assay on SK-MEL-5, in the assay with SK-OV-3 and in the assay on SNB-75 was > 100 µM (inactive) throughout. Moreover, the GI50 in the assay with UACC-257 and with UACC-62 was > 100 µM (inactive) throughout.

Regarding `CSc1nc(C)cc(=O)n1C1OC(COC(C)=O)C(OC(C)=O)C(OC(C)=O)C1OC(C)=O` (configuration not stated), the GI50 with HCT-15 is greater than 100 µM; in the assay on HL-60 it was > 100 µM (inactive); in the assay on HT-29, > 100 µM (inactive); with NCI-H226, > 100 µM (inactive); with NCI-H460, > 100 µM (inactive); in the assay with OVCAR-3, > 100 µM (inactive). Also, the GI50 in the assay with OVCAR-8, in the assay with RPMI-8226, in the assay on SF-268, in the assay on SK-MEL-28, with SK-MEL-5 and with SK-OV-3 was > 100 µM (inactive) each time. The GI50 in the assay on SNB-75 was 61.5 µM (inactive); with UACC-257 it was > 100 µM (inactive); in the assay with UACC-62, > 100 µM (inactive).

Turning to `O=C(CCC(=O)Nc1ccc(Cl)c(Cl)c1)CC(=O)c1ccc(F)cc1`, the GI50 with CAKI-1, in the assay with HL-60, with HT-29, in the assay on NCI-H226, in the assay with NCI-H460 and in the assay with OVCAR-3 was > 100 µM (inactive) each time. Also, the GI50 in the assay on OVCAR-8, in the assay with SF-268, in the assay with SK-MEL-28, in the assay with SK-MEL-5, in the assay with SK-OV-3 and in the assay on UACC-257 was > 100 µM (inactive) throughout. Besides, the GI50 in the assay with UACC-62 was 89.3 µM (inactive).

With `COc1cc(/C=C/C(=N\NC(=O)c2ccccc2)c2sc(Nc3ccc(Cl)c(Cl)c3)nc2C)ccc1O`, the GI50 in the assay with CAKI-1 was 36.4 µM (inactive); in the assay on HCT-15 it was 31.9 µM; with HL-60 it was 16.1 µM (inactive); with HT-29, 28.9 µM (inactive); with NCI-H226, 20.5 µM (inactive); in the assay on NCI-H460, 31.3 µM (inactive). In addition, the GI50 with OVCAR-3 is 30.3 µM (inactive); in the assay with OVCAR-8 it was 33.3 µM (inactive); with SF-268, 38.6 µM (inactive); in the assay on SK-MEL-28 it was 40.6 µM (inactive); in the assay with SK-OV-3, 70.3 µM (inactive); in the assay on SNB-75 it was 33.3 µM (inactive). Also, the GI50 is 29.6 µM (inactive) in the assay on UACC-257 and 7.59 µM (inactive) in the assay on UACC-62.

For `COc1cc2c(cc1O)CC13CCC(=O)N1CCc1cc(OC)c(O)c-2c13` (configuration not stated), the GI50 was > 68.1 µM (inactive) with CAKI-1; greater than 68.1 µM in the assay with HCT-15; > 68.1 µM (inactive) with HL-60; > 68.1 µM (inactive) with HT-29; > 68.1 µM (inactive) with NCI-H226; > 68.1 µM (inactive) in the assay with NCI-H460. The GI50 in the assay on OVCAR-3, in the assay on OVCAR-8, in the assay with RPMI-8226, in the assay with SF-268, in the assay with SK-MEL-28 and with SK-MEL-5 was > 68.1 µM (inactive) throughout. Besides, the GI50 in the assay on SNB-75, with UACC-257 and in the assay on UACC-62 was > 68.1 µM (inactive) in each case.

`C[C@]12CC=CC(=O)[C@@]1(C)CCC(=O)C2`: the GI50 in the assay with CAKI-1, with HL-60, in the assay with HT-29, with NCI-H226, in the assay with NCI-H460 and with OVCAR-3 was > 100 µM (inactive) each time. Further, the GI50 with OVCAR-8, with SF-268, with SK-MEL-28, in the assay on SK-MEL-5, with SK-OV-3 and in the assay on SNB-75 was > 100 µM (inactive) in each case. For the same compound, the GI50 in the assay on UACC-257 and in the assay with UACC-62 was > 100 µM (inactive) in each case.
